# Measured values taken from patent publication US7705001B2, “Therapeutic substituted gamma lactams” (Allergan, Inc, priority 2008, dated 2010).
# Test system: lashes and adjacent hairs of patients
# Experiment: Lash and hair growth observed in glaucoma patients treated in one eye
# Type: in vivo, human
# Conditions: glaucoma patient treated in only one eye
# Text: In the course of treating patients having glaucoma, treatment may only be appropriate in one eye. […] The lash appearance on the lids of the treated eyes would have appeared quite attractive if it represented a bilateral phenomenon. As a result of its asymmetric nature, the long lashes on one side could be construed as disturbing from a cosmetic standpoint. A systemic examination was preformed as a result of the asymmetric phenomenon. It soon became apparent that this altered appearance was not an isolated finding. […] Definite differences could be identified to varying degrees in the lashes and adjacent hairs of all patients who were taking the drug on a unilateral basis for longer than 6 months.
# The changes in the lashes were apparent on gross inspection in several patients once attention was focused on the issue. In those with light colored hair and lashes, the differences were only seen easily with the aid of the high magnification and lighting capabilities of the slit lamp biomicroscope. In the course of glaucoma follow-up examination, attention is generally immediately focused on the eye itself. As a result of the high power magnification needed only one eye is seen at a time and the eye is seen at a high enough power that the lashes are not in focus. […]
compound,measurement,value
CCNC(=O)CCC/C=C\C[C@@H]1[C@@H](/C=C/[C@@H](O)CCc2ccccc2)[C@H](O)C[C@@H]1O [bimatoprost],lash appearance in treated eye versus non-treated eye,"longer, thicker, and fuller in the treated eye than in the non-treated eye"
